Assay results published in US20250027072A1, “METHODS AND CO[…] TO ENGINEERED CANNABINOID RECEPTORS” (priority 2021, published 2025).
Entries after “also recorded” stand apart in the source; their conditions may differ. Like-named read-outs stand apart in the source and are kept apart here.

Key:
Assay type in all cases: cell-based
[1] = target: human cannabinoid receptor type II (CB2R) (Homo sapiens, UniProt P34972); assay: cell-based; design: Normalized Activity at 1 μM, CB2R; other: PINACA compounds, 1 μM; Normalized Activity at 1 μm, CB2R; other: 5-fluoro PB-22 isomers, 1 μm; other: MFα-CB2R, ST03 sterol strain, pH 5.8; activity against CB2R; other: at 10 nM, dose response; preference at CB2R of ADB-BINACA over AB-PINACA; signaling at CB2R in synthetic cannabinoid screen; fused on or other part: yeast mating factor alpha (MFα) pre-pro leader fused at the N-terminus as a trafficking signal; settings: for Normalized Activity at 1 μm, CB2R: 5-fluoro PB-22 isomers; for Normalized Activity at 1 μM, CB2R: PINACA compounds; for signaling at CB2R in synthetic cannabinoid screen: compounds at 1 μM; for EC50: MFα-CB2R, ST03 sterol strain, pH 5.8
Description: (§1) To efficiently transduce signals from the human machinery to the yeast pathway, the yeast 5 C-terminal residues of the G-alpha gene GPA1 were replaced with the sequence of the Gαi3 human G-alpha variant as previously described (Brown et al. 2000). ZsGreen1 was used to report on the activity of the pathway, integrating it into the genome in place of the pheromone-inducible Fig1 gene (FIG. 14A).
(§2) Yeast colonies were picked and grown overnight to saturation in pH 5.8 SD-His media in a 2.2 mL deep well plate (Axygen) grown in a plate-shaking incubator (30° C., 1000 rpm, 3 mm orbital). In the morning cultures were diluted 1:10 or 1:25 in SD-His media buffered to pH 7.1 with 100 mM MOPSO (unless otherwise specified). Ligands were added to the culture and incubated with shaking for 8 hours. Cells were then washed three times with ice-cold Tris buffer (pH 7) and diluted 1:20 for cytometry. All cytometry was performed on a Sony SA3800 spectral analyzer. Each sample was tested for 10,000 events, and read at a rate of 1,000 events per second. All assays as reported here were filtered only for singlet populations.

[2] = target: T1, human Cannabinoid Receptor 1 (CB1R) (Homo sapiens, UniProt P21554); settings: for Normalized Activity at 1 μm, CB1R: 5-fluoro PB-22 isomers; for Normalized Activity at 1 μM, CB1R: PINACA compounds; for signaling at CB1R in terpene screen: terpenes at 100 μM, normalized to 100 μM ACEA; for maximal signaling in CB1R dose response: dose-response curves; for EC50 / EC50 at CB1R, synthetic cannabinoid dose response: syn-prepro-Δ89-CB1R, wild type ergosterol strain; for EC50: read-out: EC50 at CB1R, synthetic cannabinoid dose response; for relative fluorescence of the ACEA positive control at CB1R: compounds at 10 nM, 100 μM ACEA control
T1 construct: syn-prepro (synthetic yeast pre-pro secretion leader) (N); expressed in transfected cells; host or cells: Saccharomyces cerevisiae BY4741-derived strain (ste2, sst2, far1 knocked out); Gpa1-Gαi3 chimera

[3] = system: human cannabinoid receptor type II (CB2R); assay: cell-based; settings: dual biosensor screen at 1 μM
Description: as §1, §2

Chain of human cannabinoid receptor type II (CB2R) (Homo sapiens, UniProt P34972) (P34972 whole entry, the tested form may be a part): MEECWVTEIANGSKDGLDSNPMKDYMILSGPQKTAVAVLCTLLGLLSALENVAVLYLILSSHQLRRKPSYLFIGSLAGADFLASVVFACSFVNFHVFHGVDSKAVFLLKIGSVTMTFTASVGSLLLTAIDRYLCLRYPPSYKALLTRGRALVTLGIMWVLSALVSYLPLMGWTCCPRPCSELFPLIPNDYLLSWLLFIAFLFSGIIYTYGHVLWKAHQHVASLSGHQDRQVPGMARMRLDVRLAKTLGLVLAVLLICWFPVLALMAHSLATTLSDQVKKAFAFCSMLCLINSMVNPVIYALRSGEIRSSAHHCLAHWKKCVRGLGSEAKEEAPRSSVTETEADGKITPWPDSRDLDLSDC
T1 sequence (P21554 90-472): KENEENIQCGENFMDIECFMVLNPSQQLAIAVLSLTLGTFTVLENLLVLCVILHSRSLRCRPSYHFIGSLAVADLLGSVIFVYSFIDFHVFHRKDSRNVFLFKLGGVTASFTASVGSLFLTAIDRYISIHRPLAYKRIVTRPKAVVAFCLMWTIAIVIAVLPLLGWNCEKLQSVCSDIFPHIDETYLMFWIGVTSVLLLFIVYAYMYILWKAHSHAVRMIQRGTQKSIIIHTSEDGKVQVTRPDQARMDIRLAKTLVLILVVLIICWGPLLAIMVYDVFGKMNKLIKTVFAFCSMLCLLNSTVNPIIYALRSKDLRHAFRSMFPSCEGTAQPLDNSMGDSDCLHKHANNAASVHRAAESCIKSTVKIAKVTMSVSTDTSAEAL

O=C(Oc1ccc2ncccc2c1)c1cn(CCCCCF)c2ccccc12
Normalized Activity at 1 μm, CB2R [1]: 0.141
Normalized Activity at 1 μm, CB1R [2]: 0.500

O=C(Oc1cncc2ccccc12)c1cn(CCCCCF)c2ccccc12
Normalized Activity at 1 μm, CB1R [2]: 0.570

CCCCCn1nc(C(=O)N[C@@H](CCCC)C(N)=O)c2ccccc21
Normalized Activity at 1 μM, CB2R [1]: 0.460
Normalized Activity at 1 μM, CB1R [2]: 0.735

CCC(F)CCn1cc(C(=O)C2C(C)(C)C2(C)C)c2ccccc21 (single isomer, unassigned) [XLR11 N-(3-fluoropentyl) isomer]
receptor bias CB2R versus CB1R [3]: CB2R-biased

O=C(Oc1ccc2cnccc2c1)c1cn(CCCCCF)c2ccccc12
Normalized Activity at 1 μm, CB2R [1]: 0.331

CC(C)=CCCC(C)CCO (stereo not drawn) [(+)-β-Citronellol]
signaling at CB1R in terpene screen [2]: activate CB1R

O=C(Oc1ccc2cccnc2c1)c1cn(CCCCCF)c2ccccc12
Normalized Activity at 1 μm, CB1R [2]: 0.550

C=C1CCC[C@]2(C)CC[C@@H](C(C)(C)O)C[C@@H]12 [β-Eudesmol]
signaling at CB1R at lower concentration ([2]; 10 μM, dose response): showed signaling
signaling at CB1R in terpene screen [2]: activate CB1R

CC(C)[C@H](NC(=O)c1cn(Cc2ccccc2)c2ccccc12)C(N)=O [AB-BICA]
signaling at CB2R in synthetic cannabinoid screen [1]: poor CB2R signalers
signaling at CB1R in synthetic cannabinoid screen relative to 100 μM ACEA positive control ([2]; compounds at 1 μM): CB1R agonists

CC1(C)C(C(=O)c2cn(CCN3CCOCC3)c3ccccc23)C1(C)C [A-796260]
signaling at CB2R in synthetic cannabinoid screen [1]: among the top CB2R targets

CCCCCCC(C)(C)c1cc(O)c2c(c1)OC(C)(C)[C@H]1CC=C(CO)C[C@H]21 [HU-211]
signaling at CB1R in synthetic cannabinoid screen relative to 100 μM ACEA positive control [2]: at most approximately half the relative fluorescence of the ACEA positive control

CC(C)c1c(O)ccc2c1CC[C@H]1C(C)(C)CCC[C@]21C [Totarol]
EC50 ([1]; EC50 at CB2R, dose response): 485 nM
activity against CB2R ([1]; at 10 nM, dose response): active

CCCCCn1nc(C(=O)N[C@H](C(N)=O)C(C)C)c2ccccc21 [drawing 1]
Normalized Activity at 1 μM, CB1R [2]: 0.550

CCCC(F)Cn1nc(C(=O)Oc2cccc3cccnc23)c2ccccc21 (stereo not drawn)
Normalized Activity at 1 μm, CB2R [1]: 0.582
Normalized Activity at 1 μm, CB1R [2]: 0.531

O=C(Oc1cnc2ccccc2c1)c1cn(CCCCCF)c2ccccc12
Normalized Activity at 1 μm, CB1R [2]: 0.530

COCCn1c(C)c(C)s/c1=N\C(=O)C1C(C)(C)C1(C)C [A-836339, 2,2,3,3-Tetramethyl-cyclopropanecarboxylic Acid [3-(2-Methoxy-ethyl)-4,5-dimethyl-3H-thiazol-(2Z)-ylidene]-amide]
EC50 ([1]; read-out: EC50 at CB2R, dose response): 16.3 nM

CCC(C(N)=O)N(C)C(=O)c1nn(Cc2ccc(F)cc2)c2ccccc12 (single isomer, unassigned; isomer 5) [AB-FUBINACA isomer 5]
signaling at CB1R in synthetic cannabinoid screen relative to 100 μM ACEA positive control ([2]; compounds at 1 μM): least GPCR activation
maximal signaling in CB1R dose response [2]: lower response
EC50 [2]: 15.9 nM

CCC(C)(NC(=O)c1nn(Cc2ccc(F)cc2)c2ccccc12)C(N)=O (single isomer, unassigned; isomer 2) [AB-FUBINACA isomer 2]
maximal signaling in CB1R dose response [2]: lower response
EC50 [2]: 0.23 nM

CN1CCCCC1Cn1cc(C(=O)c2cc([N+](=O)[O-])ccc2I)c2ccccc21 (stereo not drawn) [AM-1241]
signaling at CB1R in synthetic cannabinoid screen relative to 100 μM ACEA positive control [2]: at most approximately half the relative fluorescence of the ACEA positive control

Cc1c(C(=O)c2ccccc2)c(N)c(-c2ccccc2)n1Cc1ccc(Cl)cc1 [URB447]
signaling at CB1R in synthetic cannabinoid screen relative to 100 μM ACEA positive control ([2]; compounds at 1 μM): at most approximately half the relative fluorescence of the ACEA positive control

CCCCCn1nc(C(=O)NC(C(N)=O)C(C)(C)C)c2ccccc21 (stereo not drawn) [drawing 2]
Normalized Activity at 1 μM, CB2R [1]: 0.700
Normalized Activity at 1 μM, CB1R [2]: 0.590

CCCCCn1cc(-c2nc(CN(CC)CC)cs2)c2ccccc21 [PTI-1]
signaling at CB2R in synthetic cannabinoid screen [1]: poor CB2R signalers
signaling at CB1R in synthetic cannabinoid screen relative to 100 μM ACEA positive control ([2]; compounds at 1 μM): CB1R agonists

CCCCCn1c(O)c(N=NC(=O)c2ccccc2)c2ccc(OC)cc21 [MDA 77]
signaling at CB1R in synthetic cannabinoid screen relative to 100 μM ACEA positive control ([2]; compounds at 1 μM): at most approximately half the relative fluorescence of the ACEA positive control

CCN(CC)CCN1C(=O)CN=C(c2ccccc2F)c2cc(Cl)ccc21 [Flurazepam]
signaling at CB1R in synthetic cannabinoid screen relative to 100 μM ACEA positive control ([2]; compounds at 1 μM): did not show strong signal; also recorded: does not strongly activate the CB1R

CCCC(NC(=O)c1nn(Cc2ccc(F)cc2)c2ccccc12)C(N)=O (single isomer, unassigned; isomer 1) [AB-FUBINACA isomer 1]
signaling at CB1R in synthetic cannabinoid screen relative to 100 μM ACEA positive control ([2]; compounds at 1 μM): greatest activity of all the isomers
maximal signaling in CB1R dose response [2]: high maximal signaling
EC50 [2]: 0.01 nM

CCCCCn1nc(C(=O)NC(C)(C(N)=O)C(C)C)c2ccccc21 (stereo not drawn)
Normalized Activity at 1 μM, CB2R [1]: 0.303
Normalized Activity at 1 μM, CB1R [2]: 0.810

CC(C)(C)C(NC(=O)c1c2ccccc2nn1CCCCCF)C(N)=O (single isomer, unassigned; isomer 2) [5-fluoro ADB-PINACA isomer 2]
EC50 at CB1R, synthetic cannabinoid dose response [2]: low nanomolar range
EC50 [2]: 2.25 nM

CCC(F)CCn1nc(C(=O)NC(C(N)=O)C(C)C)c2ccccc21 (stereo not drawn)
Normalized Activity at 1 μM, CB2R [1]: 0.310
Normalized Activity at 1 μM, CB1R [2]: 0.700

O=C(Oc1ccc2ccncc2c1)c1cn(CCCCCF)c2ccccc12
Normalized Activity at 1 μm, CB2R [1]: 0.339

CC(C)[C@H](NC(=O)c1nn(Cc2ccc(F)cc2)c2ccccc12)C(N)=O [AB-FUBINACA]
relative fluorescence of the ACEA positive control at CB1R [2]: strong signaling
signaling at CB1R in synthetic cannabinoid screen relative to 100 μM ACEA positive control ([2]; compounds at 1 μM): maximal fluorescence
maximal signaling in CB1R dose response [2]: high maximal signaling
EC50 [2]: 0.66 nM

O=C(Oc1ccnc2ccccc12)c1cn(CCCCCF)c2ccccc12 [drawing 16]
Normalized Activity at 1 μm, CB2R [1]: 0.247
Normalized Activity at 1 μm, CB1R [2]: 0.829

O=C(Oc1cccc2ccncc12)c1cn(CCCCCF)c2ccccc12
Normalized Activity at 1 μm, CB2R [1]: 0.771

CCCCCn1nc(C(=O)N[C@H](C(N)=O)[C@@H](C)CC)c2ccccc21 (single isomer, unassigned)
Normalized Activity at 1 μM, CB2R [1]: 0.568
Normalized Activity at 1 μM, CB1R [2]: 0.753

CC(C)[C@H](NC(=O)c1cn(CC2CCCCC2)c2ccccc12)C(N)=O [AB-CHMICA]
signaling at CB2R in synthetic cannabinoid screen [1]: poor CB2R signalers
signaling at CB1R in synthetic cannabinoid screen relative to 100 μM ACEA positive control ([2]; compounds at 1 μM): CB1R agonists

COc1ccc(C(=O)c2c(C)n(CCN3CCOCC3)c3cc(Br)ccc23)cc1 [WIN54,461]
signaling at CB1R in synthetic cannabinoid screen relative to 100 μM ACEA positive control ([2]; compounds at 1 μM): at most approximately half the relative fluorescence of the ACEA positive control

CC(C)(C)C(NC(=O)c1cn(Cc2ccccc2)c2ccccc12)C(N)=O (stereo not drawn)
Normalized Activity at 1 μM, CB2R [1]: 0.255
Normalized Activity at 1 μM, CB1R [2]: 0.842

CCCC(F)Cn1nc(C(=O)NC(C(N)=O)C(C)C)c2ccccc21 (stereo not drawn)
Normalized Activity at 1 μM, CB2R [1]: 0.340
Normalized Activity at 1 μM, CB1R [2]: 0.632

CCCCCn1nc(C(=O)NC(C(N)=O)C(C)(C)C)c2ccccc21 (stereo not drawn) [ADB-PINACA]
signaling at CB2R in synthetic cannabinoid screen [1]: high activity
relative fluorescence of the ACEA positive control at CB1R [2]: strong signaling
signaling at CB1R in synthetic cannabinoid screen relative to 100 μM ACEA positive control ([2]; compounds at 1 μM): maximal fluorescence
EC50 at CB1R, synthetic cannabinoid dose response [2]: low nanomolar range
EC50 [2]: 0.09 nM
